Test results published in patent US20240415756A1, “PEPTIDES AND COMPOSITIONS FOR USE IN COSMETICS” (LIPOTRUE, S.L., priority 2022, published 2024).
Marks after values point to notes of the source that are not given here. Ends that are not written are not given here.

Key:
[1] = test system: voltage-gated sodium channels; assay: QPatch48 HT electrophysiology of sodium channels in SHSY-5Y cells; type: cell-based, human
Protocol: Using SHSY-5Y cells, electrophysiology was performed to measure ion channel activity using the QPatch48 HT (Sophion, Denmark). The samples tested were: • Negative control: 0.05% (v/v) Bovine Serum Albumin • Positive control: Tetradotoxin (TTX) at a concentration of 3 nM, 10 nM and 30 nM. • SEQ ID NO: 2—NH2 at a concentration of 0.005 mg/mL, 0.01 mg/ml and 0.05 mg/mL. • SEQ ID NO: 3—NH2 at a concentration of 0.005 mg/mL, 0.01 mg/ml and 0.05 mg/mL. • SEQ ID NO: 4—NH2 at a concentration of 0.005 mg/mL, 0.01 mg/ml and 0.05 mg/mL. • SEQ ID NO: 5—NH2 at a concentration of 0.005 mg/ml, 0.01 mg/mL and 0.05 mg/mL. • SEQ ID NO: 6—NH2 at a concentration of 0.005 mg/mL, 0.01 mg/ml and 0.05 mg/mL.
The percentage inhibition for each test dose application period was calculated as a reduction in mean cursor value (peak current) relative to the cursor value measured at the end of the vehicle control (pre-drug) and normalized to the maximum inhibition recorded with the supramaximal addition of TTX.

[2] = test system: muscle contraction-related genes; assay: RT-qPCR expression of muscle contraction-related genes in myocytes; type: cell-based, human; conditions: 0.01 or 0.005 mg/mL, 24 h
Protocol: A stock solution of the peptide was prepared in milli-Q water at 25 mg/mL. This stock was further diluted in the corresponding supplemented medium to obtain the final working concentrations of 0.01 and 0.005 mg/mL. Untreated cells were used as negative control samples.
The relevant genes for which the expression was measured were: SCN1B (Sodium Voltage-Gated Channel Beta Subunit 1), SCN4A (Sodium Voltage-Gated Channel Alpha Subunit 4), SCN3A (Sodium Voltage-Gated Channel Alpha Subunit 3), CALM3 (Calmodulin 3) and RAPSN (Receptor Associated Protein of the Synapse). The primers used for each of the genes were commercially available TaqMan Gene Expression Assay probes. The experiment was performed in vitro in myocytes, two concentrations of the peptide were tested (0.01 mg/ml and 0.005 mg/mL) at 24 h.
Briefly, human skeletal muscle myoblasts were seeded in 12-well plates at a density of 1×10^5 cells/well and maintained at standard culture conditions (SKM-M medium supplemented with 1% Antibiotic/Antimycotic; 37° C., 95% Relative Humidity, 5% CO2) for 48-72 hours until the plated myoblasts reached 80-90% confluence. […]
The obtained data were analyzed using the ΔΔCt method, which provides the target gene expression values as fold changes in the treated sample compared with an untreated basal sample. […]

[3] = test system: HDFa cells; assay: Elastin synthesis in HDFa cells (Fastin Elastin Assay Kit); type: cell-based, human; conditions: 0.01 and 0.015 mg/ml, 48 hours, vs untreated samples
Protocol: A stock solution of the peptide was prepared in water at 25 mg/mL. This stock was further diluted to obtain the final working concentrations of 0.005, 0.01 or 0.015 mg/mL in complete medium (Medium 106 supplemented with 2% LSGS). Untreated cells were used as basal condition.
For this study, HDFa cells were seeded in a 12-well plate at a density of 120,000 cells/well and maintained at standard culture conditions (Medium 106+2% LSGS; 37° C., 95% Relative Humidity, 5% CO2) for 24 hours. Then, fibroblasts were treated for 48 hours with 0.005, 0.01 or 0.015 mg/mL of the peptide mentioned above. After treatment, cells were harvested for elastin quantification with the Fastin Elastin Assay Kit, according to manufacturer instructions. Each condition was performed at least in triplicate (n=3) in three independent experiments (N=3).

[4] = test system: HDFa cells; assay: Procollagen I alpha 1 release from HDFa cells (ELISA); type: cell-based, human; conditions: 48 h
Protocol: A stock solution of the peptide was prepared in water at 25 mg/mL. This stock was further diluted to obtain the final working concentrations of 0.01, 0.015 or 0.05 mg/mL in complete medium (Medium 106 supplemented with 2% LSGS). Untreated cells were used as basal condition.
For this study, HDFa cells were seeded in a 24-well plate at a density of 100,000 cells/well and maintained at standard culture conditions (Medium 106 supplemented with 2% LSGS; 37° C., 95% Relative Humidity, 5% CO2) for 24 hours.
After 24 hours, cells were treated for 48 h with the peptide of the present invention mentioned above (0.01, 0.015 and 0.05 mg/mL). After treatments, supernatants were collected and centrifuged in order to eliminate cell debris and were kept at −80° C. until they were used for procollagen I alpha 1 quantification with a human procollagen I alpha 1 DuoSet ELISA kit according to manufacturer instructions. Each condition was performed at least in triplicate (n=3) in three independent experiments (N=3).

[5] = test system: Human Fibroblast (SF-TY JCRB); assay: Hyaluronic acid synthesis in human skin fibroblasts (ELISA); type: cell-based; conditions: 48 hours, first experimental session; for % HA content: negative control = 100
Protocol: In this case the objective of this experiment was to evaluate in vitro the capability of the peptides of the present invention to increase Hyaluronic Acid (HA) synthesis or production in human skin fibroblasts. This evaluation was carried out by determination of HA amount after cell treatment with the peptide (at the different concentrations noted below), for 48 hours.
The experimental groups were: • Untreated cell cultures (negative control). • Cells treated with the peptide of the present invention (at 0.005 mg/mL, 0.01 mg/ml or 0.05 mg/mL).
Treatment was performed for 48 hours. Treatments were performed in triplicate and in two different experimental sessions.
The experimental model used in this study were Human Fibroblast (SF-TY JCRB) cultivated in MEM with fetal bovine serum 10% and 1% antibiotics at 37° C., 5% CO2.
Cells were seeded in 96-well plate at 1×10^4 cells/well and maintained for 24 h at standard culture conditions (37° C., 95% Relative Humidity, 5% CO2) before the treatment was applied.
At the end of the experimental period, the determination of Hyaluronic synthesis was carried out by means of ELISA method. Commercial kits were used for this purpose. The test kit employed a two-site sandwich ELISA to quantitate HA in samples. Briefly, an antibody specific for HA was pre-coated onto a microplate; Standards and samples were pipetted into the wells and any HA present got bound by the immobilized antibody; after removing any unbound substances, a biotin-conjugated antibody specific for HA was added to the wells; after washing, Streptavidin conjugated Horseradish Peroxidase (HRP) was added to the wells; following a wash to remove any unbound avidin-enzyme reagent, a substrate solution was added to the wells and color developed in proportion to the amount of HA bound in the initial step. The color development was stopped, and the intensity of the color was measured. A calibration curve of known concentrations of standard hyaluronic acid was used to perform the determination of the tested samples.
The results are expressed as % of HA content in cell culture medium and cell lysate, which is calculated by stablishing the content of HA in the negative control as 100% and making the appropriate comparison with the rest of the samples.

[6] = test system: ECM-related genes; assay: RT-qPCR expression of ECM-related genes in HDFa cells; type: cell-based, human
Protocol: A stock solution of the peptide was prepared in milli-Q water at 25 mg/mL. This stock was further diluted in the corresponding supplemented medium to obtain the final working concentrations of 0.05, 0.01 and 0.005 mg/mL. Untreated cells were used as negative control samples.
The relevant genes for which the expression was measured were: MMP1 (matrix metallopeptidase 1), HYAL1 (hyaluronidase 1), TIMP2 (TIMP metallopeptidase inhibitor 2), HAS1 (hyaluronan synthase 1), FBLN5 (fibulin 5), LOXL1 (lysyl oxidase like 1), COL4A1 (collagen type IV alpha 1 chain), COL3A1 (collagen type III alpha 1 chain) and COL7A1 (collagen type VII alpha 1 chain). The primers used for each of the genes were commercially available TaqMan Gene Expression Assay probes.
Briefly, HDFa cells were seeded in 12-well plates at a density of 1.5×10^5 cells/well and maintained at standard culture conditions (106 Medium supplemented with 1% LSGS; 37° C., 95% Relative Humidity, 5% CO2) for 24 hours. Then, cells were treated with the above-mentioned peptide at 0.005, 0.01 or 0.05 mg/mL for additional 6 or 24 hours.
Cells were finally lysed, and RNA extraction was performed using Qiagen RNeasy Mini kit following manufacturer's instructions. Purified RNAs were used to generate the corresponding cDNAs by reverse transcription which served as templates for amplification. RT-qPCR was performed with the panel of TaqMan assay probes specified above and 2x gene expression Master Mix using StepOne plus Real-Time PCR instrument. Amplification included 40 cycles of: 15 seconds at 95° C. (denaturation) and 1 minute at 60° C. (Annealing and extension).
The obtained data were analyzed using the ΔΔCt method, which provides the target gene expression values as fold changes in the treated sample compared with an untreated basal sample. Both samples were normalized with the relative expression of a housekeeping gene GAPDH (Glyceraldehyde 3-phosphate dehydrogenase).
The steps for analysis included: • 1. Calculate the average Ct for each condition • 2. Calculate the ΔCT test sample and the ΔCT calibrator sample • 3. Calculate the ΔΔCT: ΔΔCT=ΔCT test sample−ΔCT calibrator sample • 4. Obtain ratio by 2^−ΔΔCT

[7] = molecular target: T1, human NaV1.3 (Homo sapiens, UniProt Q9NY46); assay: QPatch48 HT electrophysiology of NaV1.3 stably transfected into CHO cells; type: cell-based; conditions: 10 μM peptide, triplicate, vs separate negative control
T1 construct: expressed in transfected cells; host or cells: Chinese Hamster Ovary (CHO) cells, stably transfected
T1 sequence (Q9NY46 whole entry): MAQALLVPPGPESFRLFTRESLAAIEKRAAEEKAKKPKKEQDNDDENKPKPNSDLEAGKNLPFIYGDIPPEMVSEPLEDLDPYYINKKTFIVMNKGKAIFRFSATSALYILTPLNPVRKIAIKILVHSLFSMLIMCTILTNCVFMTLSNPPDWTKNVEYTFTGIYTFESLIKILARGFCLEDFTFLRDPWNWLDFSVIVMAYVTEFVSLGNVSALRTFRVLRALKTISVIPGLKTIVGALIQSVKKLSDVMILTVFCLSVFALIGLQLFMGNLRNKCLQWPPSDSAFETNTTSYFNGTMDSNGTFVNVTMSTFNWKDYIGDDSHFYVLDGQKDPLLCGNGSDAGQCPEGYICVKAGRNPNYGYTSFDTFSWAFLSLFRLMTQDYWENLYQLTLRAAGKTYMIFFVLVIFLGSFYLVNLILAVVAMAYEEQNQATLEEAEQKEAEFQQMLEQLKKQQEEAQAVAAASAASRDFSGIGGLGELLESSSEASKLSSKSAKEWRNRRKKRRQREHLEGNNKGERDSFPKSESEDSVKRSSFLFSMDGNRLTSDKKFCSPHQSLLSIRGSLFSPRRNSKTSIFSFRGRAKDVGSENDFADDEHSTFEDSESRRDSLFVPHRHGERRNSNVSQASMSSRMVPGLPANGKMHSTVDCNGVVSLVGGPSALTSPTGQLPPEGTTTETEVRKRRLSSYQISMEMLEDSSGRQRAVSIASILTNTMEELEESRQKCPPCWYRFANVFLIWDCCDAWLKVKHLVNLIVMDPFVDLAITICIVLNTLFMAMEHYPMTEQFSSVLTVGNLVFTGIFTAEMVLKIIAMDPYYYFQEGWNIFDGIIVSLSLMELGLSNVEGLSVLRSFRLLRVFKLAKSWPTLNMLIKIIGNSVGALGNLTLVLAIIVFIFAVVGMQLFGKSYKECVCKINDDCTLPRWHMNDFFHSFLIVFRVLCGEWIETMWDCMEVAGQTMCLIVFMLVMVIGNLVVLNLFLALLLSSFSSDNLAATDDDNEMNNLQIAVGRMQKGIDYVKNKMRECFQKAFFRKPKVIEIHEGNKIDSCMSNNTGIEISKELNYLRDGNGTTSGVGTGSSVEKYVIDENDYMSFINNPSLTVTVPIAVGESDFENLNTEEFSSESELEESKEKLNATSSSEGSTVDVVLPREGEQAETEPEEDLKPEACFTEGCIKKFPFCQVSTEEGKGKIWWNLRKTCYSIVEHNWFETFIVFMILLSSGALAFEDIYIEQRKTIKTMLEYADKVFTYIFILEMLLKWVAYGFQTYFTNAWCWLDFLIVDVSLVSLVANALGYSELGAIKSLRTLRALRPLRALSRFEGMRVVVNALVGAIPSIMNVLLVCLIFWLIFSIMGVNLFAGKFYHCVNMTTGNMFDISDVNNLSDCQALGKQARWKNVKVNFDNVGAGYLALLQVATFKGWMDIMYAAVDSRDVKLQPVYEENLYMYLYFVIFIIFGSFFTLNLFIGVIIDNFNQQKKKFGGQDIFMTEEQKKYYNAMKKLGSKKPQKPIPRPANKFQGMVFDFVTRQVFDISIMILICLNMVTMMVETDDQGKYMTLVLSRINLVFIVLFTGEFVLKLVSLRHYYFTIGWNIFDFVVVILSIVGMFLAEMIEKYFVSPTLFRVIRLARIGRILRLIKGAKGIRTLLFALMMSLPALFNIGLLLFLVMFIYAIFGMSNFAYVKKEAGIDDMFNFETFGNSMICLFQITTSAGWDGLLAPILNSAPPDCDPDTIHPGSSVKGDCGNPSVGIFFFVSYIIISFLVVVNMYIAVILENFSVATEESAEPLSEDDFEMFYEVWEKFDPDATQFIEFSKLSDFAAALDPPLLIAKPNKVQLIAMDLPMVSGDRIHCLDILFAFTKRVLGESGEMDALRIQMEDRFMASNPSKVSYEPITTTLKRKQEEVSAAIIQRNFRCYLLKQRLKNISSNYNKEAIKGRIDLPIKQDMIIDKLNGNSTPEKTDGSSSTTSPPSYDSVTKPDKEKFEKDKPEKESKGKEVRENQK
Protocol: Using human NaV1.3 stably transfected into Chinese Hamster Ovary (CHO) cells, electrophysiology was performed to measure ion channel activity using the QPatch48 HT (Sophion, Denmark). Experiments were performed in triplicate and using a concentration of peptide of 10 μM. A separate negative control was performed for each of the peptides. As positive control Amitriptyline was used.

[8] = 24 h, 0.05 mg/ml of the peptide

Ile-Glu-Pro-Tyr-Tyr-Val-NH2 (IEPYYV-NH2) [SEQ ID NO: 5—NH2]
ranking of sodium channel inhibition among tested peptides at the lower concentration ([1]; 0.005 mg/mL, SHSY-5Y cells): performed the best

NC1=N[C@H](O)[C@H]2[C@H]3O[C@]4(O)O[C@@H]([C@@H](O)[C@@]2(N1)[C@@H]4O)[C@]3(O)CO [TTX, tetrodotoxin, reference compound]
blocking effect on sodium channels [1]: full blocking effect

KDRVY-NH2 [SEQ ID NO: 4—NH2, Lys-Asp-Arg-Val-Tyr-NH2]
ranking of sodium channel inhibition among tested peptides at the two higher concentrations ([1]; 0.01 and 0.05 mg/mL, SHSY-5Y cells): best results
expression of sodium channels and muscle contraction-related genes (SCN1B, SCN4A, SCN3A, CALM3, RAPSN) [2]: downregulate
elastin levels [3]: increase of elastin levels
increase of procollagen I alpha 1 protein release ([4]; HDFa, 0.05 mg/mL (highest tested concentration)): 53%
procollagen I alpha 1 protein release ([4]; HDFa, 0.01, 0.015 and 0.05 mg/mL, vs untreated cells): increased at all tested concentrations, in a dose-dependent manner
% Variation with regard to negative control ([5]; 0.005 mg/mL): 7.57** %
% HA content ([5]; 0.005 mg/mL): 107.57** %
% Variation with regard to negative control ([5]; 0.01 mg/mL): 21.75*** %
% HA content ([5]; 0.01 mg/mL): 121.75*** %
% Variation with regard to negative control ([5]; 0.05 mg/mL): 39.21*** %
% HA content ([5]; 0.05 mg/mL): 139.21*** %
HYAL1 gene expression ([6]; 6 h, 0.005 mg/ml of the peptide): downregulation
HAS1 gene expression ([6]; 6 h, 0.05 mg/ml of the peptide): upregulation
COL3A1 gene expression ([6]; 24 h, 0.01 mg/m of the peptide): upregulation
COL4A1 gene expression ([6]; 24 h, 0.01 mg/m of the peptide): upregulation
MMP1 gene expression ([6]; 24 h, 0.01 mg/m of the peptide): downregulation
COL7A1 gene expression [6, 8]: upregulation
FBLN5 gene expression [6, 8]: upregulation
LOXL1 gene expression [6, 8]: upregulation
TIMP2 gene expression [6, 8]: upregulation

Lys-Arg-Arg-Tyr-Tyr-Cys-NH2 (KRRYYC-NH2) [SEQ ID NO: 2—NH2]
inhibition of NaV1.3 inward currents [7]: increased and statistically significant effect

Lys-His-Arg-Ser-Tyr-NH2 (KHRSY-NH2) [SEQ ID NO: 3—NH2]
inhibition of NaV1.3 inward currents [7]: increased and statistically significant effect
